# Where a name gives a salt, the structure may show the parent alone.
# How the values were obtained:
# [1] = Stability of the solid form on storage at different temperatures and humidities, open or closed containers; format: physicochemical; conditions: for Stability, summary in words: various conditions of temperature, humidity and container
# Description: The stability of ivabradine adipate in comparison to ivabradine hydrochloride form I was investigated at different temperatures and humidities in open or closed containers for different storage times.
# [2] = under physiological conditions; cited from earlier work
smiles,measurement,setting,value
"COc1cc2c(cc1OC)CC(=O)N(CCCN(C)C[C@H]1Cc3cc(OC)c(OC)cc31)CC2 [Ivabradine HCl form I, Ivabradine HCl]",Stability (solid form after storage),"[1]; 25° C./60% closed, 33 d",unchanged
same,Stability (solid form after storage),"[1]; 25° C./60% open, 33 d",β + unident.
same,Stability (solid form after storage),"[1]; 30° C./65% closed, 33 d",unchanged
same,Stability (solid form after storage),"[1]; 30° C./65% open, 33 d",β
same,Stability (solid form after storage),"[1]; 40° C./75% closed, 33 d",unchanged
same,Stability (solid form after storage),"[1]; 40° C./75% open, 33 d",β
same,"Stability, summary in words",[1]; HCl,"undergoes phase transition into Ivabradine HCl, form beta"
"COc1cc2c(cc1OC)CC(=O)N(CCCN(C)C[C@H]1Cc3cc(OC)c(OC)cc31)CC2 [Ivabradine adipate, Ivabradine Adipate]",Stability (solid form after storage),"[1]; 25° C./60% closed, 57 d",unchanged
same,Stability (solid form after storage),"[1]; 25° C./60% open, 57 d",unchanged
same,Stability (solid form after storage),"[1]; 30° C./65% closed, 57 d",unchanged
same,Stability (solid form after storage),"[1]; 30° C./65% open, 57 d",unchanged
same,Stability (solid form after storage),"[1]; 40° C./75% closed, 57 d",unchanged
same,Stability (solid form after storage),"[1]; 40° C./75% open, 57 d",unchanged
same,"Stability, summary in words",[1],stable
"COc1cc2c(cc1OC)CC(=O)N(CCCN(C)C[C@H]1Cc3cc(OC)c(OC)cc31)CC2 [Ivabradine, (S)-3-{3-[(3,4-dimethoxybicyclo[4.2.0]octa-1,3,5-trien-7-ylmethyl)methylamino]propyl}-7,8-dimethoxy-2,3,4,5-tetrahydro-1H-3-benzazepin-2-one]",water solubility,[2],> 10000 µg/mL

# — patent publication US20140357860A1, “SALT OF IVABRADINE WITH ADIPIC ACID” (ratiopharm GmbH, priority 2010, published 2014)
